Results: US6607890B1, “Mismatch-recognizing molecules” (Japan Science and Technology Corporation, priority 1999, dated 2003)

Experiments:
Type in all cases: binding
[1] = system: G-A mismatched base pair; test: DNase I footprinting titration on 5′-32P labeled 52-mer double-stranded DNA, G-A mismatched site
Procedure: (§1) Accordingly, it was examined whether such a compound having two 1,8-naphthylidien moieties can be incorporated into chains of a nucleic acid by constructing a paring with each mismatched guanine in a case when mismatched base pairing of guanine—guanine exists in a double-stranded nucleic acid. 52-mer double-stranded DNA labeled with 5′-^32P having a GC base pair, a GA mismatched base pair and a GG mismatched base pair in the double-stranded DNA was prepared. The partial sequences of the corresponding parts are illustrated as follows.
(§2) Using this double-stranded DNA, an inhibited position of DNA cleavage by DNase I was analyzed by means of DNase I (DNA hydrolase) footprinting titration in the presence of the compound of the formula (III) at various concentrations.
(§3) FIG. 2 is a graph showing a relationship between an intensity of cleaved band and a concentration of added naphthyriidine in FIG. 1. […] In FIG. 2, the abscissa indicates concentration (M) of the compound of the formula (III) added. In FIG. 2, black circle (●) in the graph indicates mismatched site of G-G, and black triangle (▴) indicates mismatched site of G-A.
(§4) A double-stranded DNA was prepared by hybridizing 5′-end ^32P labeled 52-mer DNA to form mismatched base pairs with G-G and G-A (refer to the right figures in FIG. 1).
(§5) Various concentrations of the compound obtained in example 1 were added to the double-stranded DNA, and analyzed by DNA footprinting using DNase I.
(§6) The double-stranded DNA (<4 nM strand concentration) was incubated with the compound obtained in example 1, which was adjusted to various concentrations with tris-HCl buffer (10 mM, pH 7.6) containing NaCl (100 mM) and MgCl2 (5 mM), at 4° C. for 12 hours. 0.2 U DNase I (DNA hydrolase) was added thereto and incubated at 25° C. for […]. DNA was recovered by mans of ethanol precipitation and electrophoresed using a gel containing 12% polyacrylamide and 7M urea.

[2] = system: G-G mismatched base pair; test: DNase I footprinting titration on 5′-32P labeled 52-mer double-stranded DNA, G-G mismatched site
Procedure: as §1, §2, §3, §4, §5, §6

[3] = system: normal G-C base pair; test: DNase I footprinting titration on 5′-32P labeled 52-mer double-stranded DNA, normal G-C site; conditions: concentration increased from 0 up to 500 μM, FIG. 1
Procedure: as §1, §2
Cleavage by DNase I (DNA hydrolase) is shown in black and inhibition in a position of the cleavage by DNase is shown in white.
as §4
Various concentrations of the compound obtained in example 1 were added to the double-stranded DNA, and analyzed by DNA footprinting using DNase I. […]

[4] = calculated from DNase I footprinting titration (FIG. 2)

Structure (SMILES): Cc1ccc2ccc(NC(=O)CCNCCC(=O)Nc3ccc4ccc(C)nc4n3)nc2n1 [formula (III), dinaphthylidinamide]
- concentration from which the inhibitory action against cleavage initiates in the G-A mismatched site ([1]; DNase I cleavage, FIG. 2): approximately 10^−6 M
- inhibition of the cleavage in the G-A mismatched site ([1]; at around (500 μM) compound): about 90%
- binding constant to the mismatched base G-A [Ka (GAmis)] [1, 4]: 16300 M⁻¹
- concentration at which the cleavage in the G-G mismatched site is inhibited almost completely ([2]; DNase I cleavage, FIG. 2): ≥ 10^−5 M
- ratio of both binding constants [(Ka (GGmis))/(Ka (GAmis))] ([2]; G-G versus G-A mismatch): 696
- binding constant to the mismatched base G-G [Ka (GGmis)] [2, 4]: 1.13e+07 M⁻¹
- effect on DNase I cleavage at the normal G-C base pairing [3]: cleavage by DNase I occurs
